Test results as given in patent US20220378756A1, “ACTIVATING PYRUVATE KINASE R” (FORMA Therapeutics, Inc., priority 2019, published 2022).
Values joined by “and” are separate entries in the source; they are usually repeats but may differ in a detail not shown here. Equal entries are not always repeated.

Legend:
[1] = target: T1, wt-PKR in mature human erythrocytes (Homo sapiens, UniProt P30613); assay: Cell assay: PKR activation in purified human RBCs (Biovision Pyruvate Kinase Assay); assay type: cell-based; details: 3 hr treatment
T1 construct: host or cells: purified human RBCs from donors
Description: The activation of wt-PKR by Compound 1 in mature human erythrocytes ex vivo was evaluated in purified RBCs purchased from Research Blood Components. Cells treated with Compound 1 for 3 hr in glucose-containing media were washed, lysed, and assayed using a Biovision Pyruvate Kinase Assay (K709-100). The assay was repeated multiple times to account for donor-to-donor variability and the relatively narrow dynamic range.

Human SCD cells = assay: Ex vivo sickling under severe hypoxic conditions (2% oxygen); assay type: cell-based; details: 10 μM
Description: Red blood cells from SCD patients were used to evaluate the effects of Compound 1 on Hgb affinity for oxygen (i.e., oxygen affinity) and sickling under hypoxic conditions. Cells were incubated at 37° C. for 1, 2, and 3 hr with HEPES buffered saline (HBS) (untreated), HBS+dimethyl sulfoxide (DMSO) (vehicle), or 10 μM Compound 1. To assess oxygen dissociation, Hgb oxygen equilibrium curves were collected during deoxygenation.
Compound 1 (10 μM) reduced cell sickling under severe hypoxic conditions of 2% oxygen (PO2 of <20 mmHg) for up to 20 min (Table 9).

[2] = tested on: 2,3-DPG and ATP levels in whole blood; assay: PK/PD studies in wild type mice, QDx7 oral gavage; assay type: in vivo, Balb/c mice
Description: Two pharmacokinetic (PK)/pharmacodynamic (PD) studies were conducted in Balb/c mice that were administered Compound 1 once daily by oral gavage (formulated in 10% Cremophor EL/10% PG/80% DI water) for 7 days (QD×7) at doses of 0 (vehicle), 3.75, 7.5, 15, 30, 60 mg/kg (Study 1); 0 (vehicle), 7.5, 15, 30, 60, 120, or 240 mg/kg (Study 2). On the 7th day, whole blood was collected 24 hours after dosing and snap frozen. Samples were later thawed and analyzed by LC/MS for 2,3-DPG and ATP levels.

[3] = tested on: ATP and 2,3-DPG levels in blood cells; assay: 28-day daily dosing in non-human primates; assay type: in vivo
Description: 2,3-DPG levels in blood cells from non-human primates receiving daily doses of Compound 1 at 100, 350 and 550 mg/kg for 28 days were measured. Dose dependent decreases in 2,3-DPG levels were observed, with up to a 40% decrease from pretreatment levels, as illustrated in FIG. 22.

[4] = tested on: Berkeley SS mouse (human HgbS); assay: Berkeley SS mouse model of SCD, 7 days in chow; assay type: in vivo; details: 1000 ppm in chow
Excerpt: Targeted gene deletions and a human transgene in the Berkeley SS mouse model result in mice that express human HgbS almost exclusively (Pászty C. Transgenic and gene knock-out mouse models of sickle cell anemia and the thalassemias. Curr Opin Hematol. 1997 March; 4(2):88-93) and mimic the genetic, hematologic, and histopathologic features of SCD in humans. These include irreversibly sickled RBCs, anemia, and multi-organ pathology.
The effects of Compound 1 on Hgb affinity for oxygen, percentage of sickled cells, and/or Hgb were evaluated in the Berkley SS mouse. Two studies were conducted where mice received 0 or 1000 ppm Compound 1 ad libitum in mouse chow for 7 days. Blood was drawn on Day 7 and analyzed under hypoxic conditions. Red cell parameters were measured by ADVIA.

[5] = tested on: H295R adreno-cortical carcinoma cell line; assay: Steroid modulation screen in vitro; assay type: cell-based; details: tested at 200 to 0.0002 μM; only at the top concentration
Description: (§1) To assess potential effects on steroidogenesis, Compound 1 was screened for steroid modulation in vitro using the H295R adreno-cortical carcinoma cell line (at 200 to 0.0002 μM) and in an assay to monitor cell viability (MTT Kit). Compound 1 indicated steroid modulation potential (% over vehicle) only at 200 µM, the top concentration tested, with 100% cellular viability at concentrations ≤20 μM (90% viability at 200 μM).

[6] = tested on: H295R adreno-cortical carcinoma cell line; assay: Cell viability (MTT Kit); assay type: cell-based
Description: as §1

[7] = Preclinical safety and in vitro panels

T1 sequence (P30613 whole entry): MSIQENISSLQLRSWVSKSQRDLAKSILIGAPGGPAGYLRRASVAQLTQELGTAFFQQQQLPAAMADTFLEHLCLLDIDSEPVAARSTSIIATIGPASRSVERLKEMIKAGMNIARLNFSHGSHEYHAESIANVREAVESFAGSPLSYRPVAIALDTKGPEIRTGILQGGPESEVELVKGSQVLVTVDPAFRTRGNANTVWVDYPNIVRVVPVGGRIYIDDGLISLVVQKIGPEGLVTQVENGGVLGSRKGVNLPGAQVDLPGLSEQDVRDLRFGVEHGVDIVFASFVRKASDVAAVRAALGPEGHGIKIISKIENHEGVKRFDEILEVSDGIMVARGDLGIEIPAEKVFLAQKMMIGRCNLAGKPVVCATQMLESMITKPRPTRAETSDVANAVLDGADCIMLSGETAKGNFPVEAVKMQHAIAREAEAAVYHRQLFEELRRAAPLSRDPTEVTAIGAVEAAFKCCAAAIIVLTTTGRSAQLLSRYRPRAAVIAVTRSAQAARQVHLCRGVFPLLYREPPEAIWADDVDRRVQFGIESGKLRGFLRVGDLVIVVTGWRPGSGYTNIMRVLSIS

## O=C([C@H](CO)c1ccccc1)N1CC2=C(C1)CN(S(=O)(=O)c1cnc3c(c1)OCCO3)C2 (single isomer, unassigned) [Compound 1]
[1]; individual replicates 1-4
  Max-Min (%): <125% and <150% and <100% and <50%
[1]; mean of replicates
  Max-Min (%), mean maximum activation increase: <100%
Human SCD cells; 15 min in hypoxic conditions (maximum)
  % Protection: 16%
Human SCD cells; 20 min in hypoxic conditions, DMSO 71
  Net % of Sickled Cells: 60%
[2]; 120 and 240 mg/kg (≥120 mg/kg) QDx7 oral
  reduction of 2,3-DPG levels in blood: > 30%
[2]; Study 1, 30 mg/kg QDx7 oral
  ATP increase compared to vehicle: 21%
[2]; Study 1, 60 mg/kg QDx7 oral
  ATP increase compared to vehicle: 79%
[2]; Study 2, 240 mg/kg QDx7 oral (highest dose)
  ATP increase: 45%
[2]; Study 2, doses up to 120 mg/kg QDx7 oral
  maximum ATP increase compared to vehicle: ~110%
[2]; both studies, up to 240 mg/kg QDx7, no adverse clinical signs, no body weight difference
  tolerability: well tolerated
[2]; ≥15 mg/kg QDx7 oral, 24 h after dosing on day 7
  reduction of 2,3-DPG levels in blood: > 20%
[2]; ≥60 mg/kg
  ATP increase: > 40%
[3]; 550 mg/kg daily for 28 days (highest dose)
  increase in ATP levels compared to pre-treatment: 90%
[3]; daily doses 100, 350 and 550 mg/kg for 28 days
  decrease in 2,3-DPG from pretreatment levels: ≤ 40%
[4]
  Hgb increase: ≈ 1 g/dL
[5]
  concentration at which steroid modulation potential (% over vehicle) was indicated: 200 µM
[6]; 200 μM
  cellular viability: 90%
[6]; concentrations ≤20 μM
  cellular viability: 100%
[7]
  preclinical evidence of arrhythmia risk, mutagenicity, nonspecific binding: has not demonstrated any preclinical evidence of arrhythmia risk, mutagenicity, or nonspecific binding activity
